The source of these data is patent US20220047475A1, “COSMETIC USE OF A SHORT CHAIN FATTY ACID (SCFA) FOR PREVENTING AND/OR TREATING DRY SKIN AND/OR AGED SKIN” (L'OREAL, priority 2018, published 2022).

In assay [1] the test system is sebocytes. Nature of the assay: High content screening (HCS) imaging of sebocytes: lipid droplets (BODIPY) and nuclei (Hoechst). As to conditions: for Nuclear count / Size of nucleus: 5 mmol.L^−1, mean ± SD, holocrine secretion. The class given is cell-based. On the procedure: Cell culture. […] D2650) in liquid nitrogen have been thawed in a water bath at 37° C. and directly washed with prewarmed […] culture media (Table 1). 3T3m cells were plated at 40.10^3 cells·cm^2 in a 175 cm^2 flask (Thermoscientific Ref. 159910) and incubated 2 hours at 37° C., 5% CO2. […] Vials containing sebocytes were thawed in a water bath at 37° C. and directly washed with prewarmed […] culture media. Sebocytes were plated at 2600 cells·cm^2 in a 175 cm^2 flask containing attached 3T3m cells and incubated (37° C., 5% CO2) to reach 70-80% confluence. After 5 days, cells were harvested using trypsin (Gibco Ref. 25300) and transferred in 96 well plates (10×10^3 cells per well, Greiner Bio-one Ref. 655956) and incubated (37° C., 5% CO2). Cell treatment. […] For valeric acid, the pH in modified cell media was neutralized with NaOH (Sodium hydroxide, Sigma 283060). […]) were both dissolved in pure ethanol (Merck Ref. 1.00983) for a final concentration per well of 60 μmar'. For these treatments, modified cell media supplemented with pure ethanol was used as controls. Supernatants (25%) sampled in exponential and stationary phases were neutralized with NaOH and were controlled with modified cell media supplemented at 25% with pure bacterial culture media. All conditions were repeated 8 times (n=8) for SOFA experiments and 24 times (n=24) for supernatants assays. Microplates were incubated 48 hours (37° C., 5% CO2) and directly sampled and/or stained and analyzed. Cell staining. […] Lipid droplets were stained with BODIPY (Invitrogen Ref. […]) diluted in DPBS solution supplemented with delipidated BSA (Bovin Serum Albumin, Sigma Ref. A7906). Nuclei were stained with Hoechst (Invitrogen, Ref. H3570) diluted in DPBS solution. High content imaging, images analysis and statistics. […] Images were analyzed using the MetaXpress image based module Transfluor (Molecular Devices). Results were exported into GraphPad Prism (version 7.01) to determine statistical significance using One-way ANOVA and expressed on bar graph as mean±SD or on box plot±min and max. *: […] Sebocytes were seeded in 96 well plates, followed by treatment with SOFA and/or LCFAs with at least 8 replicate wells (1 column) for each condition.

In assay [2] the test system is sebocytes. Nature of the assay: Quantification of secreted triglycerides (TGs) in sebocyte supernatants. It is filed as cell-based. The settings on record: for % of excreted TGs (compared to control) / FC (compared to control) of excreted TGs: 5 mmol.L^−1, 24 h. On the procedure:
Cell culture. Vials containing 3T3 mitomycine treated cells stored in 20% DMSO (Dimethylsulf oxide, Sigma Ref. D2650) in liquid nitrogen have been thawed in a water bath at 37° C. and directly washed with prewarmed G7F culture media (Table 1). 3T3m cells were plated at 40.10^3 cells·cm^2 in a 175 cm^2 flask (Thermoscientific Ref. 159910) and incubated 2 hours at 37° C., 5% CO2. Sebocytes were obtained from primary cell line and stored in 10% DMSO in liquid nitrogen. Vials containing sebocytes were thawed in a water bath at 37° C. and directly washed with prewarmed G7F culture media. Sebocytes were plated at 2600 cells·cm^2 in a 175 cm^2 flask containing attached 3T3m cells and incubated (37° C., 5% CO2) to reach 70-80% confluence. After 5 days, cells were harvested using trypsin (Gibco Ref. 25300) and transferred in 96 well plates (10×10^3 cells per well, Greiner Bio-one Ref. 655956) and incubated (37° C., 5% CO2).
Cell treatment. After 24 hours, cell media was replaced by modified cell media (G7F w/o hydrocortisone and w/o antibiotic-antimycotic) supplemented with: modified cell media (control), sodium acetate (CH3COONa, Sigma Ref. 32319), sodium propionate (CH3CH2COONa, Sigma Ref. P1880), sodium butyrate (CH3(CH2)2COONa Sigma Ref. 303410), valeric acid (CH3(CH2)3COOH, Sigma Ref. 75054). For valeric acid, the pH in modified cell media was neutralized with NaOH (Sodium hydroxide, Sigma 283060). Palmitic acid (C16:0, Cayman Ref. 10006627) and linoleic acid (C18:2 cis 9.12, Sigma Ref. L1376) were both dissolved in pure ethanol (Merck Ref. 1.00983) for a final concentration per well of 60 μmar′. For these treatments, modified cell media supplemented with pure ethanol was used as controls. Supernatants (25%) sampled in exponential and stationary phases were neutralized with NaOH and were controlled with modified cell media supplemented at 25% with pure bacterial culture media. All conditions were repeated 8 times (n=8) for SOFA experiments and 24 times (n=24) for supernatants assays. […]
Triglycerides quantification. Assays have been realized using Triglycerides Assays Kit—Quantification (Abcam, ref. Ab65336) following manufacturer's instructions. Each supernatant of the 8 replicates have been sampled (50 μl) and analyzed following the colorimetric detection method of the kit (OD 570 nm) using a plate reader Infinite 200PRO (Tecan).
Holocrine secretion is the final step of sebogenic process wherein the mature cells burst to release the lipid contents. Promotion of holocrine secretion by SOFA was based on observations and interpretations of a lower number of cells in association with an enlargement of nuclear area.

Where [3] appears, read: sebocytes, 2.5, 5, 10 and 15 mmol·l^−1.

`CC(=O)[O-].[Na+]` [Acetate, sodium acetate, reference compound]: the “de novo lipid induction compared to the control” value in assay [1] (sebocytes, 5 mmol.L^−1) is recorded as “significant”. Moreover, in assay [1] (sebocytes), the Nuclear count is reported as 18574 ± 2148 = and the Size of nucleus was 215 ± 5 =. For the same compound, in assay [1] (sebocytes, listed as acetate), the Nuclear count entry is recorded as “no effect” and the Size of nucleus result was “no effect”. Further, in assay [2], the “% of excreted TGs (compared to control)” value is on record as −10% = and the “FC (compared to control) of excreted TGs” value is on record as “FC = 0.90, =”.
For the compound `CCC(=O)[O-].[Na+]` [Proprionate, sodium propionate], in assay [1] (setting [3]), the “nuclear count per well” value is reported as “decrease in the nuclear count per well” and the “size of LDs compared to controls” value was “LDs increased in size as the concentration of propionate increased”. Further, in assay [1] (sebocytes, pure propionate 5 mmol·l^−1), the “number of LDs per cell” value is on record as “about 12 LDs/cell”. For the same compound, in assay [2] (listed as P5), the “% of excreted TGs (compared to control)” value is “+20%” and the “FC (compared to control) of excreted TGs” value is reported as roughly 1.2.
`CCCC(=O)[O-].[Na+]` [butyrate, sodium butyrate]: the “nuclear count per well” value in assay [1] (setting [3]) is listed as “decrease in the nuclear count per well”. The “FC of TGs excreted” value in assay [2] (15 mmol·l−1, 24 h) is “FC of TGs in B15>FC of TGs in B5”.
For `CCCCC(=O)O` [valerate, valeric acid], the “nuclear count per well” value in assay [1] (setting [3]) is recorded as “decrease in the nuclear count per well”. For the same compound, in assay [2] (15 mmol·l−1, 24 h), the “% of TGs excreted” value is “+100%” and the “FC of TGs excreted” value is roughly 2.
